Results on 20 compounds are retold here after patent US11072626B2, “Small molecule inhibitors of Galectin-3” (BRISTOL-MYERS SQUIBB COMPANY, priority 2017, dated 2021).

Structures are written as SMILES.

The target of the first assay is His-tagged recombinant human Gal-3 (hGal-3) (Homo sapiens (Human), UniProt P17931). The assay is described as follows: Gal-3 HTRF assay (hGal-3 / B-ASF). The format is binding. The following applies: 15 nM hGal-3, 15 nM B-ASF, table after Example 20, read-out: hGal3 IC50. The procedure: ASSAY BUFFER Composition: 25 mM HEPES, 100 mM NaCl, 0.005% Tween 20, 0.05% BSA prepared in sterile water (all reagents from Sigma)
Sequence of His-tagged recombinant human Gal-3 (hGal-3) (P17931 whole entry): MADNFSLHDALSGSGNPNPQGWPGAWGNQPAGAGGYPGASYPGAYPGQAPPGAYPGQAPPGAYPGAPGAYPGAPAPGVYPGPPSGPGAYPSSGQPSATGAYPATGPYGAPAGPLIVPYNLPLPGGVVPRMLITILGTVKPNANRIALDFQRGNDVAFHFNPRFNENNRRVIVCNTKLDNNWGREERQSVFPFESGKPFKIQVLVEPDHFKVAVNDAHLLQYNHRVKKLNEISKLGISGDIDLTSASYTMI
Positive Control: 100% DMSO (1 μl)+His-tagged hGal-3 (20 μL)+B-ASF (20 μl)+Anti-His Terbium Antibody (5 μl)+Strep d2 Antibody (5 μl).
Negative Control: 100% DMSO (1 μl)+His-tagged hGal-3 (20μL)+Anti His Terbium Antibody (5 μl)+Strep d2 Aantibody (5 μl).
PROTOCOL: The Gal-3 assays were performed in 384 white Opti plates in three replicates at room temperature with gentle shaking at 250-300 rpm From the original stocks, […] working stock concentrations of His-tagged recombinant human Gal-3 (hGal-3) and that of B-ASF were prepared. From the working stock, 20 μl of hGal-3 (15 nM) and 20 μl B-ASF (15 nM) were added to the plates. In Negative Control, only hGal-3 was added. A concentration range of 50× working stocks were prepared for the compounds in 100% DMSO. Aliquots of 1 uL of the compounds were added to the wells and pre-incubated with 20 μl hGal-3 per well for 30 minutes Then 20 μl B-ASF were added and incubated for another 1 hour. To detect the signal, 5 μ(final conc. of 1.0 nM) terbium labelled Anti-His antibody was added and incubated for 30 min followed by adding 5 μ(final conc. of 20 nM) Streptavidin d2 and incubation for another 1 hour. The assay signal was detected using HTRF screen protocol (Excitation wavelength=340 nm, emission wavelength=615 nm/665 nm) on Envision 2104 Multilabel Reader. Data analysed using Toolset and Curve Master. Results are reported in the experimental section (IC50 in μM).
As a reminder, the IC50 is the concentration at which inhibition is half-maximal. Consider `O=C(CO[C@@H]1[C@@H](n2cc(-c3cc(F)c(F)c(F)c3)nn2)[C@@H](O)[C@@H](CO)O[C@@H]1Sc1ccc(Cl)c(Cl)c1)N1CCCCC1` [Example 21], for which the IC50 was 225 nM.
Consider `O=C(CO[C@@H]1[C@@H](n2cc(-c3cc(F)c(F)c(F)c3)nn2)[C@@H](O)[C@@H](CO)O[C@@H]1Sc1ccc(Cl)c(Cl)c1)N1CCS(=O)(=O)CC1` [Example 22, 2-(((2R,3R,4S,5R,6R)-2-((3,4-dichlorophenyl)thio)-5-hydroxy-6-(hydroxymethyl)-4-(4-(3,4,5-trifluorophenyl)-1H-1,2,3-triazol-1-yl)tetrahydro-2H-pyran-3-yl)oxy)-1-(1,1-dioxidothiomorpholino)ethan-1-one], for which the half-inhibitory concentration (IC50) came out at 43 nM.
Still for that read-out and setting: the result for `O=C(CO[C@@H]1[C@@H](n2cc(-c3cc(F)c(F)c(F)c3)nn2)[C@@H](O)[C@@H](CO)O[C@@H]1Sc1ccc(Cl)c(Cl)c1)N1CCC[C@@H](O)C1` [Example 23] reads 60 nM; that for `O=C(CO[C@@H]1[C@@H](n2cc(-c3cc(F)c(F)c(F)c3)nn2)[C@@H](O)[C@@H](CO)O[C@@H]1Sc1ccc(Cl)c(Cl)c1)N1CCCC(F)(F)C1` [Example 24], 150 nM; that for `O=C(CO[C@@H]1[C@@H](n2cc(-c3cc(F)c(F)c(F)c3)nn2)[C@@H](O)[C@@H](CO)O[C@@H]1Sc1ccc(Cl)c(Cl)c1)N1CCOCC1` [Example 25, 2-(((2R,3R,4S,5R,6R)-2-((3,4-dichlorophenyl)thio)-5-hydroxy-6-(hydroxymethyl)-4-(4-(3,4,5-trifluorophenyl)-1H-1,2,3-triazol-1-yl)tetrahydro-2H-pyran-3-yl)oxy)-1-morpholinoethan-1-one], 76 nM.
On the same count and under the same terms, the result for `O=C1CN(C(=O)CO[C@@H]2[C@@H](n3cc(-c4cc(F)c(F)c(F)c4)nn3)[C@@H](O)[C@@H](CO)O[C@@H]2Sc2ccc(Cl)c(Cl)c2)CCN1` [Example 26] reads 86 nM; that for `O=C(CO[C@@H]1[C@@H](n2cc(-c3cc(F)c(F)c(F)c3)nn2)[C@@H](O)[C@@H](CO)O[C@@H]1Sc1ccc(Cl)c(Cl)c1)N1CC[C@@H](O)C1` [Example 27], 70 nM.
Same read-out and setting: next, `O=C(CO[C@@H]1[C@@H](n2cc(-c3cc(F)c(F)c(F)c3)nn2)[C@@H](O)[C@@H](CO)O[C@@H]1Sc1ccc(Cl)c(Cl)c1)N1CC[C@H](O)C1` [Example 28]: 48 nM; `O=C(CO[C@@H]1[C@@H](n2cc(-c3cc(F)c(F)c(F)c3)nn2)[C@@H](O)[C@@H](CO)O[C@@H]1Sc1ccc(Cl)c(Cl)c1)N1CCC[C@H]1CO` [Example 29]: 72 nM; `CC(=O)NC1CN(C(=O)CO[C@@H]2[C@@H](n3cc(-c4cc(F)c(F)c(F)c4)nn3)[C@@H](O)[C@@H](CO)O[C@@H]2Sc2ccc(Cl)c(Cl)c2)C1` [Example 30]: 800 nM.
Turning to `O=C(CO[C@@H]1[C@@H](n2cc(-c3cc(F)c(F)c(F)c3)nn2)[C@@H](O)[C@@H](CO)O[C@@H]1Sc1ccc(Cl)c(Cl)c1)N1CC(O)C1` [Example 31], the IC50 is 90 nM.
Same read-out and setting: next, `COCCN(C)C(=O)CO[C@@H]1[C@@H](n2cc(-c3cc(F)c(F)c(F)c3)nn2)[C@@H](O)[C@@H](CO)O[C@@H]1Sc1ccc(Cl)c(Cl)c1` [Example 32]: 700 nM; `O=C(CO[C@@H]1[C@@H](n2cc(-c3cc(F)c(F)c(F)c3)nn2)[C@@H](O)[C@@H](CO)O[C@@H]1Sc1ccc(Cl)c(Cl)c1)N1CCC[C@H](O)C1` [Example 33, 2-(((2R,3R,4S,5R,6R)-2-((3,4-dichlorophenyl)thio)-5-hydroxy-6-(hydroxymethyl)-4-(4-(3,4,5-trifluorophenyl)-1H-1,2,3-triazol-1-yl)tetrahydro-2H-pyran-3-yl)oxy)-1-((S)-3-hydroxypiperidin-1-yl)ethan-1-one]: 60 nM; `O=C(CO[C@@H]1[C@@H](n2cc(-c3cc(F)c(F)c(F)c3)nn2)[C@@H](O)[C@@H](CO)O[C@@H]1Sc1ccc(Cl)c(Cl)c1)NC1CC2(CC(O)C2)C1` (some centres unmarked) [Example 34]: 660 nM.

The assay is the same for the next values; noted with them: 15 nM hGal-3, 15 nM B-ASF, three replicates, room temperature, read-out: hGal3 IC50.
With `O=C(CO[C@@H]1[C@@H](n2cc(-c3cc(F)c(F)c(F)c3)nn2)[C@@H](O)[C@@H](CO)O[C@@H]1Sc1ccc(Cl)c(Cl)c1)N1CCC(O)CC1` [Example 20, 2-(((2R,3R,4S,5R,6R)-2-((3,4-dichlorophenyl)thio)-5-hydroxy-6-(hydroxymethyl)-4-(4-(3,4,5-trifluorophenyl)-1H-1,2,3-triazol-1-yl)tetrahydro-2H-pyran-3-yl)oxy)-1-(4-hydroxypiperidin-1-yl)ethan-1-one], the IC50 worked out at 40 nM.
Still for that read-out and setting: the result for `O=C(CO[C@@H]1[C@@H](n2cc(-c3cc(F)c(F)c(F)c3)nn2)[C@@H](O)[C@@H](CO)O[C@@H]1[S@+]([O-])c1ccc(Cl)c(Cl)c1)N1CCS(=O)(=O)CC1` [Example 35, 2-(((2R,3R,4S,5R,6R)-2-((R)-(3,4-dichlorophenyl)sulfinyl)-5-hydroxy-6-(hydroxymethyl)-4-(4-(3,4,5-trifluorophenyl)-1H-1,2,3-triazol-1-yl)tetrahydro-2H-pyran-3-yl)oxy)-1-(1,1-dioxidothiomorpholino)ethan-1-one] reads 50 nM; that for `O=C(CO[C@@H]1[C@@H](n2cc(-c3cc(F)c(F)c(F)c3)nn2)[C@@H](O)[C@@H](CO)O[C@@H]1[S@@+]([O-])c1ccc(Cl)c(Cl)c1)N1CCC[C@H](O)C1` [Example 36, 2-(((2R,3R,4S,5R,6R)-2-((S)-(3,4-dichlorophenyl)sulfinyl)-5-hydroxy-6-(hydroxymethyl)-4-(4-(3,4,5-trifluorophenyl)-1H-1,2,3-triazol-1-yl)tetrahydro-2H-pyran-3-yl)oxy)-1-((S)-3-hydroxypiperidin-1-yl)ethan-1-one], 70 nM.
Still for that read-out and setting: the result for `O=C(CO[C@@H]1[C@@H](n2cc(-c3cc(F)c(F)c(F)c3)nn2)[C@@H](O)[C@@H](CO)O[C@@H]1[S@@+]([O-])c1ccc(Cl)c(Cl)c1)N1CCOCC1` [Example 37, 2-(((2R,3R,4S,5R,6R)-2-((S)-(3,4-dichlorophenyl)sulfinyl)-5-hydroxy-6-(hydroxymethyl)-4-(4-(3,4,5-trifluorophenyl)-1H-1,2,3-triazol-1-yl)tetrahydro-2H-pyran-3-yl)oxy)-1-morpholinoethan-1-one] reads 80 nM.
As to `O=C(O)/C=C\O[C@@H]1[C@@H](n2cc(-c3cc(F)c(F)c(F)c3)nn2)[C@@H](O)[C@@H](CO)O[C@@H]1Sc1ccc(Cl)c(Cl)c1` [Example 40 (cis-isomer), (Z)-3-(((2R,3R,4S,5R,6R)-2-((3,4-dichlorophenyl)thio)-5-hydroxy-6-(hydroxymethyl)-4-(4-(3,4,5-trifluorophenyl)-1H-1,2,3-triazol-1-yl)tetrahydro-2H-pyran-3-yl)oxy)acrylic acid], the IC50 is 680 nM.
The same measure, in the same setting: the result for `O=C(O)/C=C/O[C@@H]1[C@@H](n2cc(-c3cc(F)c(F)c(F)c3)nn2)[C@@H](O)[C@@H](CO)O[C@@H]1Sc1ccc(Cl)c(Cl)c1` [Example 40 (trans-isomer), (E)-3-(((2R,3R,4S,5R,6R)-2-((3,4-dichlorophenyl)thio)-5-hydroxy-6-(hydroxymethyl)-4-(4-(3,4,5-trifluorophenyl)-1H-1,2,3-triazol-1-yl)tetrahydro-2H-pyran-3-yl)oxy)acrylic acid] reads 60 nM.
